Consider one compound from patent publication US9533965B2, “2-arylbenzofuran-7-formamide compounds, preparation method and use thereof” (SHANGHAI INSTITUTE OF MATERIA MEDICA, CHINESE ACADEMY OF …, priority 2012, dated 2017).

Each structure is given as a SMILES string. Several values for one entry are separate records, joined by “and”; a condition that tells them apart may be missing. Equal entries are not always repeated. Where two headings read alike, the source gives them in different places. A value given as a limit tells only on which side of the number the result lay.

Series [1] in a line: Preliminary pharmacokinetic experiment in rats by gavage. To be noted: 10 mg/kg by gavage. It is filed as in vivo, SD rats. The procedure:
Healthy SD rats (supplied by Shanghai Sippr-BK Lab. Animal Co. Ltd, the Production License Number for the experimental animals: SCXK (hu), 200-220 g of weight, male) were divided into groups randomly and administrated by gavage, respectively. The compound was dissolved in normal saline.
The rats fasted for 12 h and could drink water ad libitum before experiment. 2 h after dosing, the rats were provided with food all together.
The time point for collecting blood samples and the sample processing are listed as follows.
Intragastric administration: 0.25, 0.5, 1.0, 2.0, 3.0, 5.0, 7.0, 9.0 and 24 h after administration: 0.3 mL venous blood was taken from retrobulbar venous plexus of the rat and loaded into heparinization tubes. After being centrifuged at 11000 rpm for 5 min, the plasma was separated and frozen at −20° C. in a refrigerator.

For the next series, the target named is PARP1 (Homo sapiens, UniProt P09874). As to the kind of experiment: PARP1 enzymatic inhibition at molecular levels (ELISA). As to conditions: ELISA IC50, PARP1 enzyme, molecular level. A general note: ELISA stands for enzyme-linked immunosorbent assay.
Chain of PARP1 (P09874 whole entry): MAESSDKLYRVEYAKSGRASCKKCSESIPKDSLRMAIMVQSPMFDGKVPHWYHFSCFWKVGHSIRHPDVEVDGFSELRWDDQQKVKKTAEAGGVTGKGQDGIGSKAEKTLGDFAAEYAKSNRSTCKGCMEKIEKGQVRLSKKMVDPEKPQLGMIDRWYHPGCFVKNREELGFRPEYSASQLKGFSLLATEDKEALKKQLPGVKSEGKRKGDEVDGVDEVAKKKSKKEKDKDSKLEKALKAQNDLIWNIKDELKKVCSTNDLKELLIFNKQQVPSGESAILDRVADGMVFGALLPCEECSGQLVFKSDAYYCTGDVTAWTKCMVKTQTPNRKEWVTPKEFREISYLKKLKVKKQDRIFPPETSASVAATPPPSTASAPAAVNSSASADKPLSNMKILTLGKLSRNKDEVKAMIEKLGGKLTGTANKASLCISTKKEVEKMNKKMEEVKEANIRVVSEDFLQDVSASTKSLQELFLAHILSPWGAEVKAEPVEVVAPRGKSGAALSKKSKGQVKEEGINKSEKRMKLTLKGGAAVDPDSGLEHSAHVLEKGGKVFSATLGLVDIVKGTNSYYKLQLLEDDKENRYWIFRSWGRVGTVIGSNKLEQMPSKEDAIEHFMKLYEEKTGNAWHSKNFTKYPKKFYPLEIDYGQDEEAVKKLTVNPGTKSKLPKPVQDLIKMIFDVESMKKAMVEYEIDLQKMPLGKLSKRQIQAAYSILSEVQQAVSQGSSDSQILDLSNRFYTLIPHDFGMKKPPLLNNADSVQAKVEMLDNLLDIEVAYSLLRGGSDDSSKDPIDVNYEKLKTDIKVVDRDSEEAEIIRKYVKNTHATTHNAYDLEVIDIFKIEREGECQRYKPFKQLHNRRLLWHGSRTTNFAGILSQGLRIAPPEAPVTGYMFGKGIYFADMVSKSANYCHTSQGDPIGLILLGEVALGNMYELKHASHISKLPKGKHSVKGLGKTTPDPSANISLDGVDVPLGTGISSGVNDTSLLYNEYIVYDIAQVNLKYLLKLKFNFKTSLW
For the next series, the target named is T1, PARP3 (Homo sapiens, UniProt Q9Y6F1).
T1 sequence (Q9Y6F1 1-533): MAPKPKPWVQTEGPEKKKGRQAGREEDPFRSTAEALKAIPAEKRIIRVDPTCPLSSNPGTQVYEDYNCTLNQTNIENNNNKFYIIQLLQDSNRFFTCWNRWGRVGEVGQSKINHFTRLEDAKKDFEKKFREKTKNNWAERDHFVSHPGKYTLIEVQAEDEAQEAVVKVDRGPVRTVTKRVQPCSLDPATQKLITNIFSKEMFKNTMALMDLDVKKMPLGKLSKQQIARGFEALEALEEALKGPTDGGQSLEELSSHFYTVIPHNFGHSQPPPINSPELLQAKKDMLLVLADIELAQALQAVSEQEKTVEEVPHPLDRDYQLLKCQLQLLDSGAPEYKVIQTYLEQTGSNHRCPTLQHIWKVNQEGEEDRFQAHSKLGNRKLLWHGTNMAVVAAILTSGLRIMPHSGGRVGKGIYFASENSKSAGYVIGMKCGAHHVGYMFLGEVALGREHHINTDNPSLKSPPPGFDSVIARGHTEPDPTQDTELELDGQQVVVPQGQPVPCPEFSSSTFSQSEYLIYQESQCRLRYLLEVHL
In words: Enzymatic inhibition on the PARP family members (ELISA), PARP3. It is filed as biochemical. As to conditions: PARP family panel.

One may read the MRT as the average time that molecules of a dose stay in the body. What is called bioavailability is dose-corrected exposure relative to a reference, in per cent. What is called AUC(0-inf) is total exposure, with the tail of the curve extrapolated. The IC50 is the point on the concentration scale where inhibition reaches its midpoint. A high value points to a need for much substance.

In the case of `CNCc1ccc(-c2cc3cc(F)cc(C(N)=O)c3o2)cc1` [compound 5b, 5-fluoro-2-{4-[(methylamino)methyl]phenyl}benzofuran-7-carboxamide], the “eliminate rate in vivo” value in series [1] is on record as “moderate”. In addition, the AUC0-t was 0.394 µg·h/mL and 0.587 µg·h/mL and 0.352 µg·h/mL and 0.474 µg·h/mL in series [1] (10 mg/kg); 0.452 ± 0.103 µg·h/mL in series [1] (male, Sprague-Dawley (SD), rat, plasma, po, 10 mg/kg, read-out: AUC0-t). Moreover, the “AUC0-∞” value in series [1] (10 mg/kg) is 0.595 µg·h/mL and 0.407 µg·h/mL and 0.478 µg·h/mL; in series [1] (10 mg/kg, mean), 0.471 µg·h/mL. In addition, the MRT was 3.82 h and 3.34 h and 5.57 h and 3.04 h in series [1] (10 mg/kg); 3.94 ± 1.13 h in series [1] (male, Sprague-Dawley (SD), rat, plasma, po, 10 mg/kg, read-out: MRT). The bioavailability in series [1] (male, Sprague-Dawley (SD), rat, plasma, po, read-out: F (absolute bioavailability)) came out at 58.9%. Further, in series [1] (male, Sprague-Dawley (SD), rat, plasma, po, 10 mg/kg), the AUC(0-inf) came out at 0.404 µg·h/mL. The IC50 is 0.0448 ± 0.0125 µM on PARP1 and over 10 µM on PARP3.
